From patent publication US10450260B2, “NO- and H2S-releasing compounds” (RESEARCH FOUNDATION OF THE CITY UNIVERSITY OF NEW YORK, priority 2011, dated 2019)
Read-outs that look alike come from different tables or passages of the source. Values belong to the compound of their own block, whether it stands above or below them.

How the values were obtained:
[1] = target: T1, ovine COX-2 (Ovis aries, UniProt P79208); assay: COX-2 enzyme activity, colorimetric inhibitor screening kit; format: biochemical; details: for inhibition at 3000 µM: read-out: COX-2-% Inhibition, 3 mM (Table 8)
T1 construct: purchased Cayman Chemicals (Ann Arbor, Mich.)
T1 sequence (P79208 17-603): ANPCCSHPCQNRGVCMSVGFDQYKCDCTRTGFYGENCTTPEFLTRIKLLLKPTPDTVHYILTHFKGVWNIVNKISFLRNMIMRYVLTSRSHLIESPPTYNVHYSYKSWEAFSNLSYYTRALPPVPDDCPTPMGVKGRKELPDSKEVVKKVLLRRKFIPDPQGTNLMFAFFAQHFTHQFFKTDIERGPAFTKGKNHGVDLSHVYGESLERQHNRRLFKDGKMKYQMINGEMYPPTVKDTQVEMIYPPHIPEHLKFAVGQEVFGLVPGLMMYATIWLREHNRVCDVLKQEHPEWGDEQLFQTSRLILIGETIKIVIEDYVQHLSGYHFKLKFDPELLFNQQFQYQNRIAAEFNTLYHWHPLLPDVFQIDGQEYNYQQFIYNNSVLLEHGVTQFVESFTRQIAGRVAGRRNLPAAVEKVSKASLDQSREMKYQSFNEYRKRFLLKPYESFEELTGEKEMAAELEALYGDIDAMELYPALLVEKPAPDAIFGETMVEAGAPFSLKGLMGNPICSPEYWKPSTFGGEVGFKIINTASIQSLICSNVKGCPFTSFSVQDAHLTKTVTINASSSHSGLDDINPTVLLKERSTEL

[2] = tested on: Jurkat T cell human leukemia; assay: MTT cell growth inhibition, Jurkat; format: cell-based; details: for IC50: Homo sapiens, Jurkat; for Ratio NSAID/NOSH-NSAID, Jurkat: fold-enhancement in potency over the parent compound
Experimental: All cells lines were grown as monolayers except for the Jurkats which were grown in suspension. […] All media were supplemented with 10% fetal calf serum (Invitrogen, Carlsbad, Calif.) penicillin (50 U/ml), and streptomycin (50 μg/ml) (Invitrogen, Carlsbad, Calif.). Cells were seeded on culture dishes at a density of 25×10^3 cells/cm^2 and incubated at 37° C. in 5% CO2 and 90% relative humidity. Single cell suspensions were obtained by trypsinization (0.05% trypsin/EDTA), and cells were counted using a hemocytometer. Viability was determined by the trypan blue dye exclusion method.
Cell growth inhibitory effect of NOSH compounds were measured using a colorimetric MTT assay kit (Roche, Indianapolis, Ind.). Cancer cells were plated in 96-well plates at a density of 50,000 cells/well. The cells were incubated for 24 h with different concentrations of NOSH compounds. After the indicated time, 10 μl of MTT dye (3-[4,5-dimethylthiazol-2-yl]-2,5-diphenyl tetrazolium bromide, 5 mg/ml in phosphate buffered saline), was added to each well, and the plates were incubated for 2 hours at 37° C. Then, the media was aspirated, and add 100 μl of the solubilization solution (10% SDS in 0.01 M HCl) was added to each well to solubilize the formant crystals. The absorbance of the plates was measured on an ELISA reader at a wavelength of 570 nm. Each sample was performed in triplicate, and the entire experiment was repeated three times.
All media were supplemented with 10% fetal calf serum (Invitrogen, Carlsbad, Calif.) penicillin (50 U/ml), and streptomycin (50 μg/ml) (Invitrogen, Carlsbad, Calif.). Cells were seeded on culture dishes at a density of 25×10^3 cells/cm^2 and incubated at 37° C. in 5% CO2 and 90% relative humidity. Single cell suspensions were obtained by trypsinization (0.05% trypsin/EDTA), and cells were counted using a hemacytometer. The final DMSO concentration was adjusted in all media to 1%. Viability was determined by the trypan blue dye exclusion method.
Cell growth inhibitory effect of all NOSH-NSAIDs was measured using a colorimetric MTT assay kit (Roche, Indianapolis, Ind.). Cancer cells were plated in 96-well plates at a density of 30,000-50,000 cells/well depending on cell type. The cells were incubated for 24 hours with different concentrations of NOSH-NSAIDs. After the indicated time, 10 μL of MTT dye (3-[4,5-dimethylthiazol-2-yl]-2,5-diphenyl tetrazolium bromide, 5 mg/mL in phosphate buffered saline), was added to each well, and the plates were incubated for 2 hours at 37° C. Then, the media was aspirated, and 100 μL of the solubilization solution (10% SDS in 0.01 M HCl) was added to each well to solubilize the formant crystals. The absorbance of the plates was measured on a spectrophotometric plate reader at a wavelength of 570 nm. Each experiment was performed in triplicate, and the entire experiment was repeated three times.

inhibition at 800 µM ([1]; 800 μM (Table 8)): 66.8%
COX-2-% Inhibition ([1]; 800 μM (Table 8), 800 µM): 68.5%
inhibition at 1600 µM ([1]; 1600 μM (Table 8)): 71.1%
IC50 ([2]; 24 hours (Table 7)): 699000 nM
SMILES: CC1=C(CC(=O)O)c2cc(F)ccc2/C1=C\c1ccc([S+](C)[O-])cc1 (stereo not drawn) [sulindac, reference compound]

IC50 ([2]; 24 hours): 7000 ± 321 nM
SMILES: NC(=S)c1ccc(OC(=O)c2ccccc2OC(=O)CCCO[N+](=O)[O-])cc1 [NOSH-3, 4-carbamothioylphenyl 2-((4-(nitrooxy)butanoyl)-oxy)benzoate]

SMILES: O=C(CCCO[N+](=O)[O-])Oc1ccccc1C(=O)Oc1ccc(-c2cc(=S)ss2)cc1 [NOSH-1, 4-(3-thioxo-3H-1,2-dithiol-5-yl)phenyl 2-((4-(nitrooxy)butanoyl)oxy)benzoate]
inhibition at 0.025 µM ([1]; 25 nM (Table 6)): 5.4 ± 0.7%
inhibition at 0.05 µM ([1]; 50 nM (Table 6)): 14.5 ± 1%
inhibition at 0.05 µM ([1]; 50 nM (Table 8)): 23.3%
COX-2-% Inhibition ([1]; 50 nM (Table 8), listed as NOSH-ASA, 0.05 µM): 20.9%
inhibition at 0.1 µM ([1]; 100 nM (Table 6)): 27.2 ± 0.7%
inhibition at 0.1 µM ([1]; 100 nM (Table 8)): 29.1%
IC50 ([2]; 24 hours): 100 ± 8 nM

SMILES: CC(=O)Oc1ccccc1C(=O)O [ASA, aspirin, reference compound]
COX-2-% Inhibition ([1]; 1 mM, 15 min at 4° C. (Table 8)): 70.2%
inhibition at 1000 µM ([1]; read-out: COX-2 % Inhibition, 1 mM (Table 6)): 50.6 ± 1.1%
inhibition at 1000 µM ([1]; read-out: COX-2-% Inhibition, 1 mM, 15 min at 4° C. (Table 8)): 68.4%
inhibition at 3000 µM [1]: 74.6%

SMILES: CC1=C(CC(=O)Oc2ccc(OC(=O)CCCO[N+](=O)[O-])c(C(=O)Oc3ccc(-c4cc(=S)ss4)cc3)c2)c2cc(F)ccc2/C1=C/c1ccc([S+](C)[O-])cc1 (stereo not drawn) [NOSH-8, (E)-4-(3-thioxo-3H-1,2-dithiol-5-yl)phenyl 5-(2-(5-fluoro-2-methyl-1-(4-(methylsulfinyl)benzylidene)-1H-inden-3-yl)acetoxy)-2-((4-(nitrooxy)butanoyl)oxy)benzoate]
inhibition at 0.089 µM ([1]; 89 nM (Table 8)): 13.6%
COX-2-% Inhibition ([1]; 89 nM (Table 8), listed as NOSH-SULINDAC, 0.089 µM): 12.3%
IC50 ([2]; 24 hours (Table 7)): 270 nM
Ratio NSAID/NOSH-NSAID, Jurkat [2]: 2,588

IC50 ([2]; 24 hours): 90 ± 5 nM
SMILES: O=C(CCC(=O)Oc1ccccc1C(=O)Oc1ccc(-c2cc(=S)ss2)cc1)OCCCCO[N+](=O)[O-] [NOSH-2, 4-(nitrooxy)butyl (2-((4-(3-thioxo-3H-1,2-dithiol-5-yl)phenoxy)carbonyl)phenyl) succinate]

SMILES: COc1ccc2cc([C@H](C)C(=O)O)ccc2c1 [naproxen, reference compound]
COX-2-% Inhibition ([1]; 3 mM (Table 8)): 70.2%
inhibition at 3000 µM [1]: 68.6%
inhibition at 6000 µM ([1]; read-out: COX-2-% Inhibition, 6 mM (Table 8)): 74.6%

IC50 ([2]; 24 hours): 240 ± 11 nM
SMILES: O=C(CCCC[C@@H]1CCSS1)Oc1ccccc1C(=O)OCCCCO[N+](=O)[O-] [NOSH-4, (R)-4-(nitrooxy)butyl 2-((5-(1,2-dithiolan-3-yl)pentanoyl)oxy)benzoate]

SMILES: CC(C(=O)Oc1ccc(-c2cc(=S)ss2)cc1)c1ccc2cc(OC(=O)CCCO[N+](=O)[O-])ccc2c1 (stereo not drawn) [NOSH-7, 6-(1-oxo-1-(4-(3-thioxo-3H-1,2-dithiol-5-yl)phenoxy)propan-2-yl)naphthalen-2-yl 4-(nitrooxy)butanoate]
inhibition at 0.08 µM ([1]; 80 nM (Table 8)): 18.8%
COX-2-% Inhibition ([1]; 80 nM (Table 8), listed as NOSH-NAPROXEN, 0.08 µM): 15.8%
inhibition at 0.16 µM ([1]; 160 nM (Table 8)): 11%
IC50 ([2]; 24 hours (Table 7)): 100 nM
Ratio NSAID/NOSH-NSAID, Jurkat [2]: 25,500
